# Entries after “also recorded” stand apart in the source; their conditions may differ. Where no end group is shown, it is not given here.
# Legend:
# Type in all cases: in vivo, mouse
# diet-induced obese mice [1] = test: Fasting plasma glucose and insulin measurements; conditions: 16 h fast, after 12 weeks infusion, 29 weeks on VHFD
# Excerpt: FIGS. 5A-B are a pair of bar graphs showing that GLP-1(32-36)amide attenuates the development of fasting hyperglycemia and hyperinsulinemia in high fat-fed mice. Mice fed the VHFD develop hyperglycemia, hyperinsulinemia, diabetes, and insulin resistance during weeks 15 to 29 of diet-induced obesity (21-35 weeks of age, respectively). A 12-week infusion of either control vehicle or pentapeptide started at 17 weeks on high-fat diet (23 weeks of age). FIG. 5A: Fasting plasma glucose levels *p<0.0004 vehicle vs. GLP-1(32-36)a. FIG. 5B: Fasting insulin levels *p<0.042 vehicle vs. GLP-1(32-36)a. The studies are in mice fed a VHFD for 15 weeks, two weeks before beginning the continuous infusions of either control vehicle or pentapeptide. Continuous infusions of vehicle or pentapeptide GLP-1(32-36)amide were give during weeks 17 to 29 of diet (23 to 35 weeks of age). Weeks denoted on the ordinate scales refers to weeks of age. N=6 mice per group. Values are means+/−SEMs.
# Plasma obtained by tail nick from mice fasted for 16 hrs was assayed for glucose by using the one touch ultra-mini glucometer (Life Scan, Johnson and Johnson company) and for insulin with a rat/mouse Elisa kit (Crystal Chem, Downers Grove, Ill.).
# Fasting immunoreactive insulin levels: whole blood samples were spun in a refrigerated microfuge at 14,000 rpm for 10 minutes and transferred to a clean tube. […]
# diet-induced obese mice [2] = test: Intraperitoneal glucose tolerance test (ipGTT); conditions: glucose 2 g/kg BW ip, overnight fasted, VHFD 24 weeks, 16 weeks infusion (FIG. 5C)
# Description: FIGS. 5C-D are a pair of line graphs Plasma glucose levels (FIG. 5C) and (FIG. 5D) Plasma insulin levels after an intraperitoneal glucose administration ([…] BW ip) in overnight fasted mice fed in VHFD for 24-weeks and 16-weeks of continuous infusions of vehicle or GLP-1(32-36)amide. ***p<4E-03 vehicle vs. GLP-1(32-36)amide, *p<0.01 vehicle vs. GLP-1(32-36)amide, **p<0.004 vehicle vs. GLP-1(32-36)amide, *****p<1.7E-05 vehicle vs. GLP-1(32-36)amide, ****p<6.7 E-04 vehicle vs. GLP-1(32-36)amide.
# Mice were maintained in a normal light/dark cycle according to the standard protocols of the MGH Animal Care and Use Committee. Mice were tested with age matched or litter mate controls and 6 mice per group are required. […] The following morning the mice were prepared for the glucose tolerance test: animals were weighed, the tail was nicked with a fresh razor blade by a horizontal cut of the very end, ˜35 to 50 microliters of blood is massaged from the tail to an eppendorf tube which is immediately placed on ice, baseline blood glucose is measured by the glucose oxidase method using a Glucometer Elite glucometer, and 2 grams/kg body weight of 20% D-glucose is drawn up in a Beckton Dickenson D 29 gage ½″ insulin syringe (one unit of D-glucose for every gram of body weight). Animals were then transferred to individually labeled 1000 cc cardboard soup cups with the lid liners removed.
# Following animal preparation, glucose was injected into the intraperitoneal cavity. At 10, 20, 30, 60, 120, and 140 minutes blood glucose is sampled from the tail of each mouse by gently massaging a small drop of blood onto the glucometer strip. Glucose injections and blood glucose sampling is timed to take approximately the same amount of time per animal (i.e. 25 animals are injected in 12 minutes and blood glucose sampling of those same 25 animals should also take about 12 minutes) so that the sample times are accurate for each animal.
# diet-induced obese mice [3] = test: Dual energy X-ray absorptiometry (DXA) of lean, fat and total body mass
# Excerpt: FIGS. 2A-D are bar graphs showing the results of determinations of lean, fat, and total body mass by dual X-ray absorptiometry (DXA) of mice receiving continuous infusions of the pentapeptide […] or control vehicle alone for 16 weeks. At the time of the study the mice were 39 weeks of age and on the very high fat diet for 33 weeks. 2A. Fat versus lean mass. The fat mass is 40% less in the pentapeptide infused compared to the control vehicle infused mice. *P<0.0008. […] 2B. Total body mass (lean+fat) differences in peptide infused versus vehicle control infused obese mice. *P<0.002. 2C. Fat mass expressed as the fraction of fat mass in peptide infused mice versus vehicle control infused obese mice. *P<0.0008. 2D. Fat mass expressed as the percentage of body weight, peptide-infused versus vehicle control-infused obese mice. *P<0.001. N=6 mice per group. Values are means+/−SEMs.
# Mice were anesthetized with 0.02 ml of a 2% tribromoethanol solution per gram of body weight and scanned with a dual X-ray apparatus (Lunar Piximus, GE Medical Systems, Wauwatosa, Wis.). Total, fat, and lean body mass was quantitatively determined.
# diet-induced obese mice [4] = test: Liver triglyceride content
# Description: FIGS. 6A-B are bar graphs showing that infusions of GLP-1(32-36)amide in mice prevent the accumulation of triglyceride in the livers of mice fed a very high-diet (VHFD). Triglyceride contents of samples of livers of mice fed a high-fat diet (VHFD) for 32 weeks (age 38 weeks). 6A. Triglyceride levels of pentapeptide-infused obese mice as a percent of the vehicle-infused control mice set at 100%. *p<0.005. 6B. Triglyceride content levels of 60.5+/−12.1 mg/mg protein. Infusion of the pentapeptide lowered the triglyceride content by 65% to 21.1+/−5.6 mg/mg protein, indistinguishable from the values in the livers of lean mice fed low-fat chow (21.6+/−7 mg/mg protein). Data from diet-induced obese mice infused with the nonapeptide, GLP-1(28-36)amide for 16 weeks are also shown. Values are represented as % of vehicle control infused mice fed a high-fat diet (VHFD). *p<0.005, peptide vs. vehicle. N=6 mice per group. Values are means+/−SEMs.
# Representative samples (2-3 gms) of livers were obtained and quick frozen on solid CO2 at the time of sacrifice and necropsy. The samples were subsequently homogenized and triglycerides were extracted and measured using a colorimetric enzymatic assay (Serum Triglyceride Determination kit, Sigma).
# [5] = after 16 weeks infusion, VHFD mice (FIG. 2A)
substance,measurement,setting,value
"LVKGRamide (LVKGR-NH2) [GLP-1(32-36)amide, pentapeptide derived from the C-terminus of the glucoincretin hormone GLP-1]",fasting plasma glucose,diet-induced obese mice [1]; vehicle 8.8 (FIG. 5A),5.5 mM
same,fasting plasma insulin,diet-induced obese mice [1]; vehicle 300 (FIG. 5B),250 pM
same,glycemic response in ipGTT,diet-induced obese mice [2],normal
same,relative (%) fat mass compared to vehicle-treated mice (DXA),diet-induced obese mice [3]; after 16 weeks infusion (FIG. 2C),decreased
same,fat mass reduction compared to vehicle control (DXA),diet-induced obese mice [3]; [5],40%
same,lean mass change compared to vehicle control (DXA),diet-induced obese mice [3]; [5],no significant difference
same,lean mass change compared to vehicle control (DXA),"diet-induced obese mice [3]; after 16 weeks infusion, VHFD mice (FIG. 2A), listed as pentapeptide",no significant changes; also recorded: no significant difference
same,total body mass (body weight) (DXA),"diet-induced obese mice [3]; after 16 weeks infusion, vs vehicle (FIG. 2B)",decreased
same,ratio of fat mass to body weight (DXA),"diet-induced obese mice [3]; after 16 weeks infusion, vs vehicle (FIG. 2D)",decreased
same,liver triglyceride as percent of vehicle control set at 100%,diet-induced obese mice [4]; VHFD mice (FIG. 6A),35%
same,liver triglyceride content decrease compared to vehicle,"diet-induced obese mice [4]; VHFD mice, pentapeptide infusion (FIG. 6A, 6B)",65%
same,liver triglyceride content,"diet-induced obese mice [4]; VHFD mice, vehicle 60.5+/-12.1, lean low-fat diet mice 21.6+/-7 (FIG. 6B)",21.1+/−5.6 mg/mg protein

# Reference: patent US10137171B2, “Methods of treatment using a pentapeptide derived from the C-Terminus of Glucagon-Like Peptide 1 (GLP-1)” (The General Hospital Corporation, priority 2011, dated 2018)
